Results published in ChEMBL document CHEMBL5500381, “Antiviral drug discovery: Pyrimidine entry inhibitors for Zika and dengue viruses” (Eur J Med Chem, 2024).
≈ marks a conversion by molar mass, not a printed value. Calls of active or inactive are those of the source. The rule behind the calls is not given here.

Experiments:
[1] = Cytotoxicity against African green monkey Vero cells assessed as cell viability measured after 72 hrs by MTT assay; assay type: toxicity, cell-based; settings: chlorocebus sabaeus
dengue virus type 2 [2] = assay: Anti-viral activity against DENV-2 Thailand/16681/1984 strain infected in african green monkey Vero cells at 0.1 MOI assessed as reduction in virus yield measured after 48 hrs by virus reduction assay; assay type: functional, organism-based; settings: Thailand/16681/1984, Vero
[3] = Selectivity index, ratio of CC50 for cytotoxicity against African green monkey Vero cells to EC50 for anti-viral activity against DENV-2 Thailand/16681/1984 strain; assay type: toxicity, cell-based; settings: read-out: Selectivity Index
Zika virus [4] = assay: Anti-viral activity against ZIKV Argentine strain INEVH116141 infected in african green monkey Vero cells at 0.1 MOI assessed as reduction in virus yield measured after 48 hrs by virus reduction assay; assay type: functional, organism-based
[5] = Selectivity index, ratio of CC50 for cytotoxicity against African green monkey Vero cells to EC50 for anti-viral activity against ZIKV Argentine strain INEVH116141; assay type: toxicity, cell-based; settings: read-out: Selectivity Index
dengue virus type 2 [6] = assay: Anti-viral activity against DENV-2 Thailand/16681/1984 strain infected in african green monkey Vero cells assessed as reduction in genome level at 10 uM measured after 48 hrs by QRT-PCR analysis; assay type: functional, organism-based
Zika virus [7] = assay: Anti-viral activity against ZIKV Argentine strain INEVH116141 infected in african green monkey Vero cells assessed as reduction in genome level at 10 uM measured after 48 hrs by QRT-PCR analysis; assay type: functional, organism-based
dengue virus type 2 [8] = assay: Anti-viral activity against DENV-2 Thailand/16681/1984 strain infected in african green monkey Vero cells at 0.1 MOI assessed as reduction in fluorescence at 10 uM measured after 48 hrs by epifluorescence microscopy; assay type: functional, organism-based
Zika virus [9] = assay: Anti-viral activity against ZIKV Argentine strain INEVH116141 infected in african green monkey Vero cells at 0.1 MOI assessed as reduction in […] at 10 uM measured after 48 hrs by epifluorescence microscopy; assay type: functional, organism-based
dengue virus type 2 [10] = assay: Anti-viral activity against DENV-2 Thailand/16681/1984 strain infected in african green monkey Vero cells at 0.1 MOI assessed as reduction in fluorescence at 10 uM measured for first 8 hrs by plaque assay; assay type: functional, organism-based
Zika virus [11] = assay: Anti-viral activity against ZIKV Argentine strain INEVH116141 infected in african green monkey Vero cells at 0.1 MOI assessed as reduction in […] at 10 uM measured for first 8 hrs by plaque assay; assay type: functional, organism-based
dengue virus type 2 [12] = assay: Anti-viral activity against DENV-2 Thailand/16681/1984 strain infected in african green monkey Vero cells at 0.1 MOI assessed as reduction in fluorescence at 10 uM measured for 10 to 12 hrs by plaque assay; assay type: functional, organism-based; settings: time 10-12 hrs
Zika virus [13] = assay: Anti-viral activity against ZIKV Argentine strain INEVH116141 infected in african green monkey Vero cells at 0.1 MOI assessed as reduction in […] at 10 uM measured for 10 to 12 hrs by plaque assay; assay type: functional, organism-based; settings: time 10-12 hrs
dengue virus type 2 [14] = assay: Virucidal effect in DENV-2 Thailand/16681/1984 strain assessed as inactivation of virus at 2.5 to 10 uM measured after 1.5 hrs incubation by viral inactivation assay; assay type: functional, organism-based; settings: dose 2.5-10 µM
Zika virus [15] = assay: Virucidal effect in ZIKV Argentine strain INEVH116141 strain assessed as inactivation of virus at 2.5 to 10 uM measured after 1.5 hrs incubation by viral inactivation assay; assay type: functional, organism-based; settings: dose 2.5-10 µM
dengue virus type 2 [16] = assay: Anti-viral activity against DENV-2 Thailand/16681/1984 strain infected in African green monkey Vero cells at 0.1 MOI assessed as reduction in viral titer at 10 uM pre-treated for 2 hrs before cellular infection followed by infection 1 hr incubated with compound free culture medium for 48 hrs; assay type: functional, organism-based
dengue virus type 2 [17] = assay: Anti-viral activity against DENV-2 Thailand/16681/1984 strain infected in African green monkey Vero cells at 0.1 MOI assessed as reduction in viral titer at 10 uM pre-treated for 4 hrs before cellular infection followed by infection 1 hr incubated with compound free culture medium for 48 hrs; assay type: functional, organism-based
Zika virus [18] = assay: Anti-viral activity against ZIKV Argentine strain INEVH116141 infected in African green monkey Vero cells at 0.1 MOI assessed as reduction in viral titer at 10 uM pre-treated for 2 hrs before cellular infection followed by infection 1 hr incubated with compound free culture medium for 48 hrs; assay type: functional, organism-based
Zika virus [19] = assay: Anti-viral activity against ZIKV Argentine strain INEVH116141 infected in African green monkey Vero cells at 0.1 MOI assessed as reduction in viral titer at 10 uM pre-treated for 4 hrs before cellular infection followed by infection 1 hr incubated with compound free culture medium for 48 hrs; assay type: functional, organism-based
dengue virus type 2 [20] = assay: Inhibition of DENV-2 Thailand/16681/1984 strain infection in African green monkey Vero cells assessed as absorption treated with compound for 1 hr during infection at 4 degC; assay type: functional, organism-based
Zika virus [21] = assay: Inhibition of ZIKV Argentine strain INEVH116141 infection in African green monkey Vero cells assessed as absorption treated with compound for 1 hr during infection at 4 degC; assay type: functional, organism-based
dengue virus type 2 [22] = assay: Inhibition of DENV-2 Thailand/16681/1984 strain infection in African green monkey Vero cells assessed as internalization (INT) treated after 1 hr post infection measured after 24 to 48 hrs; assay type: functional; settings: time 24-48 hrs
dengue virus type 2 [23] = assay: Inhibition of DENV-2 Thailand/16681/1984 strain infection in African green monkey Vero cells assessed as post-internalization (Post-INT) treated after 2 hr post infection measured after 24 hrs; assay type: functional
dengue virus type 2 [24] = assay: Inhibition of DENV-2 Thailand/16681/1984 strain infection in African green monkey Vero cells assessed as post-internalization (Post-INT) treated after 2 hr post infection measured after 48 hrs; assay type: functional
Zika virus [25] = assay: Inhibition of ZIKV Argentine strain INEVH116141 infection in African green monkey Vero cells assessed as internalization (INT) treated after 1 hr post infection measured after 24 hrs; assay type: functional
Zika virus [26] = assay: Inhibition of ZIKV Argentine strain INEVH116141 infection in African green monkey Vero cells assessed as internalization (INT) treated after 1 hr post infection measured after 48 hrs; assay type: functional
Zika virus [27] = assay: Inhibition of ZIKV Argentine strain INEVH116141 infection in African green monkey Vero cells assessed as post-internalization (Post-INT) treated after 2 hr post infection measured after 24 hrs; assay type: functional
Zika virus [28] = assay: Inhibition of ZIKV Argentine strain INEVH116141 infection in African green monkey Vero cells assessed as post-internalization (Post-INT) treated after 2 hr post infection measured after 48 hrs; assay type: functional
[29] = Solubility of the compound in phosphate-buffered saline solution (PBS,pH 7.4) incubated for 24 hrs by shake-flask method; assay type: physicochemical
[30] = Solubility of the compound in simulated intestinal fluid (SIF,pH 6.8) incubated for 24 hrs by shake-flask method; assay type: ADME
[31] = Solubility of the compound in simulated gastric fluid (SGF,pH 1.2) incubated for 24 hrs by shake-flask method; assay type: ADME
[32] = Permeability of the compound by PAMPA assay; assay type: ADME
[33] = Plasma stability in human plasma measured at 4 hrs; assay type: ADME, cell-free
[34] = Plasma stability in mouse plasma measured at 4 hrs; assay type: ADME, cell-free
[35] = Plasma stability in human plasma measured after 24 hrs relative to control; assay type: ADME, cell-free; settings: read-out: Activity
[36] = Metabolic stability in mouse liver microsomes assessed as half life at 3 uM in presence of NADPH by HPLC-MS analysis; assay type: ADME, Microsome
[37] = Metabolic stability in mouse liver microsomes assessed as intrinsic clearance at 3 uM in presence of NADPH by HPLC-MS analysis; assay type: ADME, Microsome
[38] = Metabolic stability in mouse liver microsomes assessed as degradation at 3 uM in presence of NADPH measured upto 45 mins by HPLC-MS analysis; assay type: ADME, Microsome; settings: read-out: CLH

Structure (SMILES): Cc1ccc(CNc2cc(C(F)(F)F)nc(NCCN3CCCCC3)n2)cc1
- CC50 at 72 h [1]: 49 µM
- EC50 (dengue virus type 2 [2]): > 20 µM
- selectivity ratio [3]: < 2.5
- EC50 (Zika virus [4]): 13.5 µM
- selectivity ratio [5]: 3.63

Structure (SMILES): CC1(C)CC(Nc2nc(C#N)cc(Nc3ccc(-c4ccccc4)cc3)n2)CC(C)(C)N1
- CC50 at 72 h [1]: 7.5 µM
- EC50 (dengue virus type 2 [2]): 1.96 µM
- selectivity ratio [3]: 3.82
- EC50 (Zika virus [4]): 4.4 µM
- selectivity ratio [5]: 1.7

Structure (SMILES): CC1(C)CC(Nc2nccc(Nc3ccc(Cl)cc3)n2)CC(C)(C)N1
- CC50 at 72 h [1]: 5.19 µM
- EC50 (dengue virus type 2 [2]): 3.15 µM
- selectivity ratio [3]: 1.64
- EC50 (Zika virus [4]): 2.48 µM
- selectivity ratio [5]: 2.09

Structure (SMILES): FC(F)(F)c1cc(NCc2ccc(Cl)cc2)nc(NCCN2CCCCC2)n1
- CC50 at 72 h [1]: 23.8 µM
- EC50 (dengue virus type 2 [2]): 1.16 µM
- selectivity ratio [3]: 20.5
- EC50 (Zika virus [4]): 2.61 µM
- selectivity ratio [5]: 9.13
- Activity (dengue virus type 2 [6]): Active
- Activity (Zika virus [7]): Active
- Activity (dengue virus type 2 [8]): Active
- Activity (Zika virus [9]): Active
- Activity (dengue virus type 2 [10]): Active
- Activity (Zika virus [11]): Active
- Activity (dengue virus type 2 [12]): Active
- Activity (Zika virus [13]): Active
- Activity (dengue virus type 2 [14]): inactive
- Activity (Zika virus [15]): inactive
- Activity (dengue virus type 2 [16]): Active
- Activity (dengue virus type 2 [17]): Active
- Activity (Zika virus [18]): inactive
- Activity (Zika virus [19]): Active
- inhibition (dengue virus type 2 [20]): inactive
- inhibition (Zika virus [21]): inactive
- inhibition (INH) (dengue virus type 2 [22]): <50%
- inhibition (INH) (dengue virus type 2 [23]): 73.2%
- inhibition (INH) (dengue virus type 2 [24]): 85.52%
- inhibition (INH) (Zika virus [25]): 26.36%
- inhibition (INH) (Zika virus [26]): 29.22%
- inhibition (INH) (Zika virus [27]): 44.86%
- inhibition (INH) (Zika virus [28]): 43.7%
- solubility thermodynamic at 24 h [29]: 507 µg/mL (≈ 1230 µM)
- solubility thermodynamic at 24 h [30]: 1690 µg/mL (≈ 4080 µM)
- solubility thermodynamic at 24 h [31]: 76 µg/mL (≈ 184 µM)
- permeability [32]: Permeable
- Stability [33]: Stable
- Stability [34]: Stable
- remaining at 24 h [35]: 20%
- half-life at 3 µM [36]: 8.6 min
- CLH [37]: 179 µL/min
- microsomal CLint at 3 µM [38]: 179 µL/min/mg

Structure (SMILES): CC1(C)CC(Nc2ncnc(Nc3ccc(-c4ccccc4)cc3)n2)CC(C)(C)N1
- CC50 at 72 h [1]: 5.01 µM

Structure (SMILES): FC(F)(F)c1cc(Nc2ccc(Cl)cc2)nc(NCCN2CCCCC2)n1
- CC50 at 72 h [1]: 18.8 µM
- EC50 (dengue virus type 2 [2]): 10 µM
- selectivity ratio [3]: 1.88
- EC50 (Zika virus [4]): 10 µM
- selectivity ratio [5]: 1.88

Structure (SMILES): FC(F)(F)c1cc(NCc2ccc(-c3ccccc3)cc2)nc(NCCN2CCCCC2)n1
- CC50 at 72 h [1]: 36.9 µM
- EC50 (dengue virus type 2 [2]): > 20 µM
- selectivity ratio [3]: < 2
- EC50 (Zika virus [4]): > 20 µM
- selectivity ratio [5]: < 2

Structure (SMILES): FC(F)(F)c1cc(Nc2ccc(-c3ccccc3)cc2)nc(NCCN2CCCCC2)n1
- CC50 at 72 h [1]: 5.74 µM
- EC50 (dengue virus type 2 [2]): 0.76 µM
- selectivity ratio [3]: 7.55
- EC50 (Zika virus [4]): 1.11 µM
- selectivity ratio [5]: 5.12
- solubility thermodynamic at 24 h [29]: 4 µg/mL (≈ 9.06 µM)
- solubility thermodynamic at 24 h [30]: 10 µg/mL (≈ 22.7 µM)
- solubility thermodynamic at 24 h [31]: 506 µg/mL (≈ 1150 µM)
- permeability [32]: Impermeable
- Stability [33]: Stable
- Stability [34]: Stable

Structure (SMILES): N#Cc1cc(Nc2ccc(-c3ccccc3)cc2)nc(NCCN2CCCCC2)n1
- CC50 at 72 h [1]: 25.4 µM
- EC50 (dengue virus type 2 [2]): 8.06 µM
- selectivity ratio [3]: 3.15
- EC50 (Zika virus [4]): 4.31 µM
- selectivity ratio [5]: 5.89

Structure (SMILES): Fc1ccc(CNc2cc(C(F)(F)F)nc(NCCN3CCCCC3)n2)cc1
- CC50 at 72 h [1]: 47.6 µM
- EC50 (dengue virus type 2 [2]): 16.1 µM
- selectivity ratio [3]: 2.96
- EC50 (Zika virus [4]): 16.8 µM
- selectivity ratio [5]: 2.84

Structure (SMILES): O=C(Nc1cc(C(F)(F)F)nc(NCCN2CCCCC2)n1)c1ccc(Cl)cc1
- CC50 at 72 h [1]: 20.8 µM
- EC50 (dengue virus type 2 [2]): > 20 µM
- selectivity ratio [3]: < 1.05
- EC50 (Zika virus [4]): > 20 µM
- selectivity ratio [5]: < 1.05

Structure (SMILES): Nc1ccc(-c2ccc(Nc3cc(C(F)(F)F)nc(NCCN4CCCCC4)n3)cc2)cc1
- CC50 at 72 h [1]: 17.8 µM
- EC50 (dengue virus type 2 [2]): > 10 µM
- selectivity ratio [3]: < 2
- EC50 (Zika virus [4]): > 10 µM
- selectivity ratio [5]: < 2
